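A five-concentration, 48-hour dose response in 96-well plates underlies each endpoint, interpolated linearly between surrounding concentrations. Here, GI50 denotes the concentration required for 50% inhibition of growth. TGI: total growth inhibition.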

What all share (experiment): NCI-60 cell line screen, 48 h
The test system of assay [1] is COLO 205 colon.
Assay [2] has as its system HL-60(TB) leukemia.
Assay [3] deals with MOLT-4 leukemia.
In assay [4] the test system is NCI/ADR-RES ovarian.
Assay [5] deals with OVCAR-3 ovarian.
Assay [6] deals with OVCAR-4 ovarian.
The subject of assay [7] is PC-3 prostate.
Assay [8] relates to SK-OV-3 ovarian.
For assay [9], the system named is NCI-H522 lung.
Assay [10] relates to SF-268 CNS.

In the case of `CCOC(=O)c1csc(NC(=O)CCN2CCCC2)n1`, the TGI in assay [1], in assay [2], in assay [3], in [4], in [5] and in assay [6] was greater than 100 µM each time. Further, the TGI in assay [7] and in assay [8] was greater than 100 µM in each case.

In the case of `COc1ccc(C(=O)/C=C/SC(=NC#N)SC)cc1`, the TGI is 38.8 µM in assay [1]; greater than 100 µM in [2]; 58 µM in assay [3]; 37.1 µM in assay [9]; 42.3 µM in [4]; 37.2 µM in assay [5]. In addition, the TGI is greater than 100 µM in assay [6], greater than 100 µM in [7], 70.3 µM in assay [10] and 47.5 µM in assay [8].

As for `Cc1cccc2c1CC(Cc1ccccc1C(=O)O)C2=O` (centres undefined), the TGI in assay [1], in assay [2], in assay [3], in assay [9], in [4] and in assay [5] was greater than 100 µM throughout. In addition, the TGI in assay [6], in assay [7], in [10] and in assay [8] was greater than 100 µM throughout.

Turning to `CCOC(=O)[C@@H](Cc1ccc(CCl)cc1)NC(C)=O`, the TGI in assay [1] is 43.9 µM; in assay [2], 70.7 µM; in assay [3], greater than 100 µM; in assay [9], 35.5 µM; in assay [4] it was 43.9 µM; in assay [5] it was greater than 100 µM. Also, the TGI in [6] was 41.1 µM; in [7], greater than 100 µM; in [10], 67 µM; in [8], greater than 100 µM.

Regarding `C[C@H]1[C@H](C)CC[C@]2(C(=O)OC3OC(CO)C(O)C(O)C3O)CC[C@]3(C)C(=CC[C@@H]4[C@@]5(C)C[C@@H](O)[C@@H]6OC(=O)c7cc(O)c(O)c(O)c7-c7c(cc(O)c(O)c7O)C(=O)OC[C@@]6(CO)[C@@H]5CC[C@]43C)[C@H]12` (some centres undefined), the TGI was greater than 100 µM in [1]; greater than 100 µM in assay [2]; greater than 100 µM in assay [3]; greater than 100 µM in [9]; greater than 100 µM in assay [4]; greater than 91.4 µM in [5]. For the same compound, the TGI is 75.3 µM in [6], greater than 100 µM in [7], greater than 100 µM in assay [10] and greater than 100 µM in assay [8].

As for `NC(=O)C1CCN(Cc2c(Cl)c(Cl)c(CN3CCC(C(N)=O)CC3)c(Cl)c2Cl)CC1`, the TGI in [1], in assay [2], in assay [3], in [9], in assay [4] and in assay [5] was greater than 100 µM each time. Moreover, the TGI in [6] is greater than 100 µM; in assay [7], greater than 100 µM; in assay [10], greater than 100 µM; in [8], 46.5 µM.

As to `O=C1c2cc3c(cc2-c2c1c1ccc(Cl)cc1c(=O)n2CCCn1ccnc1)OCO3`, the GI50 in assay [1] is 55.2 nM; in assay [2], less than 10 nM; in [3] it was less than 10 nM; in assay [9] it was 18.2 nM; in [4] it was less than 10 nM; in [5], 39.6 nM. Moreover, the GI50 in assay [6] was 52.5 nM; in assay [7], 43.8 nM; in assay [10] it was less than 10 nM; in [8] it was less than 10 nM. Besides, the TGI was greater than 100 µM in [1]; 1.93 µM in assay [2]; 1.17 µM in [3]; 30.7 µM in assay [9]; 15.2 µM in [4]; 1.4 µM in assay [5]. Also, the TGI is greater than 100 µM in [6], greater than 100 µM in assay [7], greater than 100 µM in assay [10] and 26.6 µM in assay [8].

Regarding `O=c1c2ccc(Cl)cc2oc2c(CNc3ccc(S(=O)(=O)Nc4ncccn4)cc3)cccc12`, the TGI in assay [1], in assay [2], in assay [3], in [9], in [4] and in assay [5] was greater than 100 µM each time. For the same compound, the TGI in assay [6], in [7] and in assay [8] was greater than 100 µM in each case.

For `CCOC(=O)c1csc(NC(=O)CCN2CCN(C)CC2)n1`, the TGI in assay [1], in [2], in assay [3], in assay [4], in [5] and in assay [6] was greater than 100 µM in each case. Moreover, the TGI in [7] and in [8] was greater than 100 µM in each case.

In the case of `C/C(=C\CSCC(N)C(=O)O)CC/C=C(\C)CNc1ccccc1` (centres undefined), the TGI in assay [1], in assay [2], in assay [3], in assay [9], in assay [4] and in assay [5] was greater than 100 µM throughout. The TGI in assay [6], in assay [7], in assay [10] and in [8] was greater than 100 µM throughout.

Turning to `O=C1c2cc3c(cc2CC12Cc1ccc4c(c1C2=O)CCC4)CCC3` (centres undefined), the TGI in assay [2], in assay [3], in [9], in assay [4], in [5] and in assay [6] was greater than 100 µM throughout. The TGI in [7], in [10] and in assay [8] was greater than 100 µM throughout.

In the case of `CCc1nc2c(c(N(C)C)c1C(=O)OC)CCc1ccccc1-2`, the TGI in [1] was 41.8 µM; in assay [2] it was 9.43 µM; in [3], 23 µM; in assay [9] it was 45.6 µM; in [4], greater than 100 µM; in [5], 35.4 µM. Further, the TGI in assay [6] was greater than 100 µM; in assay [7] it was 40 µM; in assay [10], greater than 100 µM; in assay [8], 51.4 µM.

For `COC1(CC[C@H](C)COC2OC(CO)C(O)C(O)C2O)O[C@H]2C[C@H]3[C@@H]4CC=C5C[C@@H](OC6OC(CO)C(OC7OC(C)C(O)C(O)C7O)C(O)C6OC6OC(C)C(O)C(O)C6O)CC[C@]5(C)[C@H]4CC[C@]3(C)[C@H]2[C@@H]1C` (some centres undefined), the TGI in assay [1] was 64 µM; in assay [2] it was 46.6 µM; in assay [3], greater than 100 µM; in [9] it was 5.31 µM; in assay [4] it was 11.1 µM; in assay [5] it was 17.6 µM. For the same compound, the TGI in [6] was found to be 18 µM; in [7], 11.9 µM; in assay [10] it was 10.3 µM; in assay [8], 7.99 µM.
